66 compounds from US10093678B2, “Azaspiro derivatives as TRPM8 antagonists” (RaQualia Pharma Inc., priority 2014, dated 2018) can be followed below.

Usually IC50 stands for the point on the concentration scale where inhibition reaches its midpoint.

T1 sequence (Q7Z2W7 whole entry): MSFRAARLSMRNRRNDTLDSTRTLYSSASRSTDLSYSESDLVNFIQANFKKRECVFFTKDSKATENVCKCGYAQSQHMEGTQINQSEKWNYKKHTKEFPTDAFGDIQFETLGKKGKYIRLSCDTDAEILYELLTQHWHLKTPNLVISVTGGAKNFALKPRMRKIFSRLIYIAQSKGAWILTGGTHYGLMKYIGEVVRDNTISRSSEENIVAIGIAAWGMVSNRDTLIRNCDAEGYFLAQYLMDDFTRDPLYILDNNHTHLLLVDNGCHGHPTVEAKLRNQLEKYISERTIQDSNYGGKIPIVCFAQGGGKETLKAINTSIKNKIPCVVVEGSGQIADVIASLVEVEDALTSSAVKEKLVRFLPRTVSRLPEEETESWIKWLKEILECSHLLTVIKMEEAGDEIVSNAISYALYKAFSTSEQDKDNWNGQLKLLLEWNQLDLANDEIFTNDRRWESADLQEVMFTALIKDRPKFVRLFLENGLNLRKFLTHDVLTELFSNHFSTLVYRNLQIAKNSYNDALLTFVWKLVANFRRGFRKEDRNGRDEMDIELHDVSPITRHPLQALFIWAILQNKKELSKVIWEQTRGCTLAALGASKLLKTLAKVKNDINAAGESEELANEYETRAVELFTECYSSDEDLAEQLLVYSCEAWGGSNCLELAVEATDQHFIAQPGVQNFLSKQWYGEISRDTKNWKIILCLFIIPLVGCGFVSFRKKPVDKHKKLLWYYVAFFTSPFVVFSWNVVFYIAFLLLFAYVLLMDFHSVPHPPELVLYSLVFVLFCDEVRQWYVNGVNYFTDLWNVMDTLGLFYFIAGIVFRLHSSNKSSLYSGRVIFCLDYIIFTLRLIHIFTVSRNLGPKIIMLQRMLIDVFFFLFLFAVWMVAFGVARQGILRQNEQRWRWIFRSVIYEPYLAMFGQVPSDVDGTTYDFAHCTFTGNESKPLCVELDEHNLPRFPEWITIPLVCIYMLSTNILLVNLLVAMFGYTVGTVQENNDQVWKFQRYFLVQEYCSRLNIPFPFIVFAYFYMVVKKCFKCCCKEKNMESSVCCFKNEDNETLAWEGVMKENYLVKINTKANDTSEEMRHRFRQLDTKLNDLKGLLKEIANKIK

The test has as its target T1, human TRPM8 (Homo sapiens, UniProt Q7Z2W7).
T1 construct: expressed in transfected cells; host or cells: HEK293
In words: Menthol-induced Ca2+ influx in HEK293 cells stably expressing human TRPM8. Format: cell-based. Particulars: 30 microM menthol-induced Ca2+ influx, read-out: IC50 against TRPM8. In outline: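 IC50 values were fitted from 11-point dose-response data averaged over duplicate wells. Compound was added for 5 min to Fluo4-loaded HEK293 cells carrying stable human TRPM8, in HBSS/HEPES pH 7.4 with probenecid. Intracellular Ca2+ change after 30 microM menthol addition was then imaged on FDSS.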
For `NCc1ncccc1-c1ccc(C(=O)CN2C(=O)NC3(CCC(F)(F)CC3)C2=O)cc1` [Example 6-56, 3-(2-(4-(2-(aminomethyl)pyridin-3-yl)phenyl)-2-oxoethyl)-8,8-difluoro-1,3-diazaspiro[4.5]decane-2,4-dione], the IC50 is less than 500 nM.

For the compound `Cc1nc(C(=O)CN2C(=O)NC3(CCC(F)(F)CC3)C2=O)sc1-c1cccc2c1CNC2=O` [Example 18-12], the IC50 was less than 500 nM.

For `Cc1nc2cccnc2n1-c1ccc(C(=O)CN2CC3(CCC(F)(F)CC3)OC2=O)cc1` [Example 22-2], the IC50 is less than 500 nM.

For the compound `N#Cc1ncccc1-c1ccc(C(=O)CN2CC3(CCC(F)(F)CC3)OC2=O)cc1` [Example 7-20], the IC50 is less than 500 nM.

In the case of `Cc1ccncc1-c1sc(C(=O)CN2C(=O)NC3(CCC(F)(F)CC3)C2=O)cc1C` [Example 14-5], the IC50 was less than 10 nM.

Consider `O=C(CN1C(=O)NC2(CCC(F)(F)CC2)C1=O)c1ccc(-c2nccnc2CO)cc1` [Example 6-6], for which the IC50 was less than 10 nM.

With `O=C(CN1C(=O)NC2(CCC(F)(F)CC2)C1=O)c1ccc(-c2ncc3ccccn23)cc1` [Example 6-63], the IC50 is less than 100 nM.

Consider `O=C(CN1C(=O)NC2(CCCCC2)C1=O)c1ccc(Oc2ccccc2)nc1` [Example 5-24], for which the IC50 was less than 500 nM.

Consider `Cc1ncccc1-c1c(C)nc(C(=O)CN2C(=O)NC3(CCC(F)(F)CC3)C2=O)n1C` [Example 17-13], for which the IC50 is less than 500 nM.

As to `O=C(CN1C(=O)NC2(CCCCC2)C1=O)c1ccc(-c2cccnc2)nc1` [Example 5-2], the IC50 is less than 100 nM.

Consider `CC(=O)NCc1ncccc1-c1ccc(C(=O)CN2C(=O)NC3(CCC(F)(F)CC3)C2=O)cc1` [Example 6-57, N-((3-(4-(2-(8,8-difluoro-2,4-dioxo-1,3-diazaspiro[4.5]decan-3-yl)acetyl)phenyl)pyridin-2-yl)methyl)acetamide], for which the IC50 was less than 100 nM.

For `N#Cc1cnccc1-c1ccc(C(=O)CN2C(=O)NC3(CCC(F)(F)CC3)C2=O)cc1` [Example 6-98], the IC50 is less than 100 nM.

For `Cc1cc(C(=O)CN2C(=O)NC3(CCC(F)(F)CC3)C2=O)n(C)c1-c1cccc2c1CNC2=O` [Example 16-17], the IC50 was less than 100 nM.

As for `Cc1nc(C(=O)CN2C(=O)NC3(CCC(F)(F)CC3)C2=O)c(C)n1-c1ccccc1` [Example 2-2], the IC50 was less than 100 nM.

Turning to `Cc1c(C(=O)CN2C(=O)NC3(CCC(F)(F)CC3)C2=O)cn(C)c1-c1cccc(F)c1` [Example 16-24], the IC50 was less than 100 nM.

As to `Cn1c(-c2cccc(F)c2)cnc1C(=O)CN1C(=O)NC2(CCC(F)(F)CC2)C1=O` [Example 17-1], the IC50 is less than 100 nM.

As for `O=C(CN1C(=O)NC2(CCC(F)(F)CC2)C1=O)c1ccc(-n2cnc3cncnc32)cc1` [Example 19-34], the IC50 is less than 500 nM.

For `O=C(CN1C(=O)NC2(CCC(F)(F)CC2)C1=O)c1ccc(-c2nccc3[nH]ncc23)cc1` [Example 6-20], the IC50 is less than 100 nM.

With `O=C(CN1C(=O)NC2(CCCCC2)C1=O)c1ccc(Oc2cccnc2)nc1` [Example 20-2], the IC50 was less than 500 nM.

On to `Cc1cnc(C)c(-c2ccc(C(=O)CN3C(=O)NC4(CCCCC4)C3=O)cc2)n1` [Example 7-4], for which the IC50 was less than 100 nM.

Turning to `N#Cc1cccnc1-c1ccc(C(=O)CN2C(=O)NC3(CCCCC3)C2=O)cc1` [Example 7-12], the IC50 is less than 100 nM.

On to `O=C(CN1C(=O)NC2(CCC(F)(F)CC2)C1=O)c1ccc(-c2cccc3ccncc23)cc1` [Example 13-36], for which the IC50 is less than 10 nM.

With `Cc1ccnc(Oc2ccc(C(=O)CN3C(=O)NC4(CCC(F)(F)CC4)C3=O)cc2)n1` [Example 21-7], the IC50 was less than 500 nM.

On to `NC(=O)c1cccc(-c2ccc(C(=O)CN3C(=O)NC4(CCC(F)(F)CC4)C3=O)cc2)c1` [Example 6-110], for which the IC50 was less than 500 nM.

In the case of `O=C(CN1C(=O)NC2(CCC(F)(F)CC2)C1=O)c1ccc(-c2cnc3ccccn23)cc1` [Example 6-81], the IC50 was less than 100 nM.

`Cc1cc(C)nc(-n2c(C)cc(C(=O)CN3C(=O)NC4(CCC(F)(F)CC4)C3=O)c2C)c1` [Example 3-16]: the 50% inhibitory concentration (IC50) is less than 100 nM.

For the compound `Cc1c(C(=O)CN2C(=O)NC3(CCC(F)(F)CC3)C2=O)cn(C)c1-c1ccccc1C#N` [Example 16-25], the IC50 is less than 100 nM.

Regarding `Cc1cc(C(=O)CN2C(=O)NC3(CCC(F)(F)CC3)C2=O)sc1-c1cnccc1C(F)(F)F` [Example 14-15], the IC50 was less than 100 nM.

As to `Nc1ccnnc1-c1ccc(C(=O)CN2C(=O)NC3(CCC(F)(F)CC3)C2=O)cc1F` [Example 8-6], the IC50 was less than 500 nM.

Regarding `O=C(CN1C(=O)NC2(CCC(F)(F)CC2)C1=O)c1ccc(-c2nccc3cnccc23)cc1` [Example 6-37], the IC50 is less than 100 nM.

With `Cc1cc(C(=O)CN2C(=O)NC3(CCC(F)(F)CC3)C2=O)sc1-c1ccccc1Cl` [Example 14-14], the IC50 was less than 100 nM.

Consider `Cc1ccc2nc(C(F)F)n(-c3ccc(C(=O)CN4C(=O)NC5(CCC(F)(F)CC5)C4=O)cc3)c2n1` [Example 24-5], for which the 50% inhibitory concentration (IC50) is less than 10 nM.

Turning to `Cc1ncsc1-c1ccc(C(=O)CN2C(=O)NC3(CCC(F)(F)CC3)C2=O)cc1` [Example 6-12], the IC50 is less than 100 nM.

Regarding `Cc1ncccc1-c1ccc(C(=O)CN2C(=O)NC3(CCCCC3)C2=O)cn1` [Example 9-7], the IC50 was less than 100 nM.

On to `Cc1nc(C(=O)CN2C(=O)NC3(CCC(F)(F)CC3)C2=O)sc1-c1cccc(F)c1` [Example 18-5], for which the IC50 is less than 100 nM.

As to `Cc1cc(C(=O)CN2C(=O)NC3(CCCCC3)C2=O)cnc1-c1ccccc1` [Example 11-2], the IC50 is less than 100 nM.

As for `Cc1cc(C(=O)CN2C(=O)NC3(CCCCC3)C2=O)ccc1-c1ccccc1` [Example 13-5], the IC50 is less than 100 nM.

For `Cc1ccccc1-c1ccc(C(=O)CN2C(=O)NC3(CCCCC3)C2=O)cn1` [Example 9-2], the IC50 was less than 10 nM.

As to `CN(c1ccccc1)c1ccc(C(=O)CN2C(=O)NC3(CCC(F)(F)CC3)C2=O)cn1` [Example 19-9], the IC50 is less than 100 nM.

Consider `Cc1ccncc1-c1ccc(C(=O)CN2C(=O)NC3(CCC(F)(F)CC3)C2=O)cc1Cl` [Example 13-23], for which the IC50 is less than 100 nM.

In the case of `Cc1cccnc1-c1ccc(C(=O)CN2C(=O)NC3(CCC(F)(F)CC3)C2=O)cc1` [Example 6-82], the IC50 was less than 500 nM.

For `O=C(CN1C(=O)NC2(CCC(F)(F)CC2)C1=O)c1ccc(-c2cccn3ccnc23)cc1` [Example 6-38], the IC50 was less than 100 nM.

Regarding `O=C(CN1C(=O)OC2(CCC(F)(F)CC2)C1=O)c1ccc(-c2ccccn2)cc1` [Example 7-24], the IC50 is less than 100 nM.

Regarding `Cc1cccc(-c2cnc(C(=O)CN3C(=O)NC4(CCC(F)(F)CC4)C3=O)n2C)c1` [Example 17-14], the IC50 is less than 500 nM.

Take `O=C(CN1C(=O)NC2(CCC(F)(F)CC2)C1=O)c1ccc(-c2ncccc2CO)cc1` [Example 6-36]: the IC50 is less than 100 nM.

As for `Cc1cc(C(=O)CN2C(=O)NC3(CCC(F)(F)CC3)C2=O)sc1-c1cncc(C#N)c1` [Example 14-13], the IC50 was less than 100 nM.

For `Cc1ncccc1-c1ccc(C(=O)CN2C(=O)OC3(CCC(F)(F)CC3)C2=O)cc1` [Example 13-72], the IC50 was less than 100 nM.

As for `Cc1cc(C(=O)CN2C(=O)NC3(CCC(F)(F)CC3)C2=O)n(C)c1-c1cc(F)cc(F)c1` [Example 16-9], the IC50 is less than 100 nM.

On to `Cc1nccnc1-c1ccc(C(=O)CN2CC3(CCC(F)(F)CC3)OC2=O)cc1` [Example 7-19], for which the IC50 was less than 500 nM.

`Cc1cc(C(=O)CN2C(=O)NC3(CCC(F)(F)CC3)C2=O)n(C)c1-c1cccc2ccncc12` [Example 16-15]: the IC50 was less than 100 nM.

As to `Cn1c(C(=O)CN2C(=O)NC3(CCC(F)(F)CC3)C2=O)ccc1-c1cncc(F)c1` [Example 16-31], the IC50 was less than 500 nM.

With `Cc1cc(C(=O)CN2C(=O)NC3(CCC(F)(F)CC3)C2=O)ccc1-c1ccccc1C#N` [Example 13-9], the IC50 was less than 100 nM.

Turning to `Cc1cc(C(=O)CN2C(=O)NC3(CCC(F)(F)CC3)C2=O)c(C)n1-c1nnn(C)n1` [Example 3-21], the IC50 is less than 500 nM.

Consider `O=C(CN1C(=O)NC2(CCC(F)(F)CC2)C1=O)c1ccc(-c2ccnc3c2OCCO3)cc1` [Example 13-50], for which the IC50 is less than 500 nM.

Take `O=C(CN1C(=O)NC2(CCC(F)(F)CC2)C1=O)c1ccc(-c2nccc3ccncc23)cc1` [Example 6-44]: the IC50 is less than 100 nM.

Turning to `Cc1cc(C(=O)CN2C(=O)NC3(CCC(F)(F)CC3)C2=O)n(C)c1-c1ccccc1F` [Example 16-13], the IC50 was less than 100 nM.

In the case of `O=C(CN1C(=O)NC2(CCCCC2)C1=O)c1ccc(-c2cnccc2CO)cc1` [Example 7-9], the IC50 is less than 100 nM.

`O=C(CN1C(=O)NC2(CCC(F)(F)CC2)C1=O)c1ccc(-c2nccs2)cc1` [Example 6-95]: the IC50 was less than 500 nM.

On to `O=C(CN1C(=O)NC2(CCC(F)(F)CC2)C1=O)c1ccc(N2CCOc3ccccc32)cc1` [Example 19-20], for which the IC50 was less than 100 nM.

For the compound `Cc1cccc(-n2c(C)nc(C(=O)CN3C(=O)NC4(CCC(F)(F)CC4)C3=O)c2C)c1` [Example 2-12], the IC50 is less than 100 nM.

In the case of `Cc1sc(C(=O)CN2C(=O)NC3(CCC(F)(F)CC3)C2=O)c(C)c1-c1ccccc1C#N` [Example 15-1], the IC50 was less than 100 nM.

Regarding `Cc1cc(C(=O)CN2C(=O)NC3(CCC(F)(F)CC3)C2=O)sc1-c1cccc(CO)c1` [Example 14-21], the IC50 is less than 500 nM.

Consider `N#Cc1cccnc1Oc1ccc(C(=O)CN2C(=O)NC3(CCC(F)(F)CC3)C2=O)cc1` [Example 21-1, 2-(4-(2-(8,8-difluoro-2,4-dioxo-1,3-diazaspiro[4.5]decan-3-yl)acetyl)phenoxy)nicotinonitrile], for which the IC50 was less than 100 nM.

`Cc1c(C(=O)CN2C(=O)NC3(CCCCC3)C2=O)nn(C)c1-c1ccccc1` [Example 4-2]: the IC50 was less than 100 nM.

In the case of `Cc1nc(C(=O)CN2C(=O)OC3(CCC(F)(F)CC3)C2=O)c(C)n1-c1ccccc1` [Example 2-3], the IC50 was less than 100 nM.

As for `O=C(CN1C(=O)NC2(CCCCC2)C1=O)c1ccc(Oc2cccnn2)cc1` [Example 5-40], the IC50 is less than 500 nM.
